System: Plasmodium berghei
Experiment: Luciferase/luciferin-expressing antifolate-resistant parasites were used to infect a culture of HepG2 cells that were pre-incubated with compounds. Infected hepatocytes emit light due to the luciferase reaction. Assay results are presented as the percent inhibition of light emission compared to control. […]
Format: functional
Settings: sporozoite; for IC90: read-out: LUCIFERASE INFECTION ASSAY - IC90

Row | Compound | IC90 [µM] | other results
1 | CC1(C)CCc2cc(-c3ccnc(S)n3)ccc2O1 | > 12.1 | IC50 (FFLUC_HILL_SLOPE 9.25, FFLUC_R_SQUARED 0.0162, PBLUC_HILL_SLOPE 0.814, PBLUC_R_SQUARED 0.637, read-out: LUCIFERASE INFECTION ASSAY - IC50): 1.38 µM
2 | CCOC(=O)c1ccc(N2C(=O)C=CC2=O)cc1 | > 13.5 | IC50 (FFLUC_HILL_SLOPE 9.09, FFLUC_R_SQUARED 0.613, PBLUC_HILL_SLOPE 2.11, PBLUC_R_SQUARED 0.463, read-out: LUCIFERASE INFECTION ASSAY - IC50): 7.08 µM
3 | COc1ccc(O)c(/C=N/NC(=O)c2ccc(CSc3nc(C)cc(C)n3)cc2)c1 | 4.88 | IC50 (FFLUC_HILL_SLOPE 9.54, FFLUC_R_SQUARED 0.0205, HEPG2TOX_HILL_SLOPE 2.18, HEPG2TOX_R_SQUARED 0.934, PBLUC_HILL_SLOPE 9.18, PBLUC_R_SQUARED 0.547, read-out: LUCIFERASE INFECTION ASSAY - IC50): 3.84 µM
4 | CC(C)(C)c1cc(/C=C2\C=c3ccccc3=C2O)cc(C(C)(C)C)c1O | > 9.47 | IC50 (FFLUC_HILL_SLOPE 9.15, FFLUC_R_SQUARED 0.521, read-out: LUCIFERASE INFECTION ASSAY - IC50): > 9.47 µM
5 | O=C(NCc1ccccc1)/C(=C/c1ccc(OCc2ccccc2)cc1)c1nc2ccccc2[nH]1 | 1.26 | IC50 (FFLUC_HILL_SLOPE 9.07, FFLUC_R_SQUARED 0.413, PBLUC_HILL_SLOPE 2.18, PBLUC_R_SQUARED 0.79, read-out: LUCIFERASE INFECTION ASSAY - IC50): 0.462 µM
6 | CC(=O)OCc1ccccc1Sc1ccccc1C(=O)Nc1ccccc1 | > 8.74 | IC50 (FFLUC_HILL_SLOPE 9.22, FFLUC_R_SQUARED 0.715, read-out: LUCIFERASE INFECTION ASSAY - IC50): > 8.74 µM
7 | Cc1cc(C(=O)COC(=O)c2ccc[nH]c2=O)c(C)n1CC1CCCO1 (configuration not stated) | > 10 | IC50 (FFLUC_HILL_SLOPE 9.51, FFLUC_R_SQUARED 0.378, PBLUC_HILL_SLOPE 2.55, PBLUC_R_SQUARED 0.111, read-out: LUCIFERASE INFECTION ASSAY - IC50): 6.62 µM
8 | CCCCNC(=O)c1c(NC(=O)c2cc(OC)cc(OC)c2)nc2ccccn12 | 5.61 | IC50 (FFLUC_HILL_SLOPE 9.35, FFLUC_R_SQUARED 0.0665, PBLUC_HILL_SLOPE 7.48, PBLUC_R_SQUARED 0.629, read-out: LUCIFERASE INFECTION ASSAY - IC50): 4.18 µM
9 | O=C(c1cccs1)N1[C@@H]2CC[C@@H](C2)[C@H]1c1nc2cccc(OCc3ccc(F)cc3)c2[nH]1 | > 10 | IC50 (FFLUC_HILL_SLOPE 9.4, FFLUC_R_SQUARED 0.0879, PBLUC_HILL_SLOPE 2.58, PBLUC_R_SQUARED 0.515, read-out: LUCIFERASE INFECTION ASSAY - IC50): 7.57 µM
10 | CN(C)CCNc1ccnc2c(-c3ccccc3F)cnn12 | 1.46 | IC50 (FFLUC_HILL_SLOPE 9.41, FFLUC_R_SQUARED 0.56, PBLUC_HILL_SLOPE 1.12, PBLUC_R_SQUARED 0.894, read-out: LUCIFERASE INFECTION ASSAY - IC50): 0.204 µM
11 | Cc1cc(C)n(-c2ccc([N+](=O)[O-])cc2S(=O)(=O)N(CC(=O)N2CCCc3ccccc32)c2ccc(Cl)cc2)n1 | 4.71 | IC50 (FFLUC_HILL_SLOPE 9.12, FFLUC_R_SQUARED 0.891, HEPG2TOX_HILL_SLOPE 1.68, HEPG2TOX_R_SQUARED 0.248, PBLUC_HILL_SLOPE 7.9, PBLUC_R_SQUARED 0.762, read-out: LUCIFERASE INFECTION ASSAY - IC50): 3.56 µM
12 | COc1ccc(NS(=O)(=O)c2cc(NC(=O)c3cccc(OC(F)F)c3)ccc2N2CCCCC2)cc1 | > 10 | IC50 (FFLUC_HILL_SLOPE 8.96, FFLUC_R_SQUARED 0.85, read-out: LUCIFERASE INFECTION ASSAY - IC50): > 10 µM
13 | Cc1nn(-c2nc3ccccc3s2)c2c1C(c1cc(Br)c(O)c(Br)c1)C1C(=O)CCCC1=N2 (configuration not stated) | > 10 | IC50 (FFLUC_HILL_SLOPE 9.07, FFLUC_R_SQUARED 0.197, PBLUC_HILL_SLOPE 1.11, PBLUC_R_SQUARED 0.592, read-out: LUCIFERASE INFECTION ASSAY - IC50): 4.69 µM
14 | COc1cccc(N(C(=O)c2ccc3c(c2)OCO3)c2nc(-c3ccc(Cl)cc3Cl)cs2)c1 | > 10 | IC50 (FFLUC_HILL_SLOPE 8.73, FFLUC_R_SQUARED 0.44, PBLUC_HILL_SLOPE 14.1, PBLUC_R_SQUARED 0.181, read-out: LUCIFERASE INFECTION ASSAY - IC50): 8.64 µM
15 | Cc1ccc(CSc2nc3c(c(-c4cccs4)c2C#N)CCCC3)cc1 | > 8.76 | IC50 (FFLUC_HILL_SLOPE 8.93, FFLUC_R_SQUARED 0.64, PBLUC_HILL_SLOPE 2.69, PBLUC_R_SQUARED 0.339, read-out: LUCIFERASE INFECTION ASSAY - IC50): 6.13 µM
16 | CSc1nc(C)nc(C)c1C(=O)Nc1nc(-c2ccc3c(c2)CCCC3)cs1 | > 10 | IC50 (FFLUC_HILL_SLOPE 9.1, FFLUC_R_SQUARED 0.159, read-out: LUCIFERASE INFECTION ASSAY - IC50): > 10 µM

Row | Compound | IC90 [µM] | other results
17 | CC(Sc1nnc(-c2cccs2)n1C(C)C1CC2CCC1C2)C(=O)N1CCCc2ccccc21 (configuration not stated) | > 10 | IC50 (FFLUC_HILL_SLOPE 9.01, FFLUC_R_SQUARED 0.23, read-out: LUCIFERASE INFECTION ASSAY - IC50): > 10 µM
18 | Cc1cc(C(=O)CN2CCC(C(=O)Nc3ccc4c(c3)OCO4)CC2)c(C)n1Cc1cccs1 | > 10 | IC50 (FFLUC_HILL_SLOPE 9.45, FFLUC_R_SQUARED 0.378, read-out: LUCIFERASE INFECTION ASSAY - IC50): > 10 µM
19 | CCCCc1ccc(NC2=C(Cl)C(=O)c3ccccc3C2=O)cc1 | 3.62 | IC50 (FFLUC_HILL_SLOPE 9.03, FFLUC_R_SQUARED 0.305, HEPG2TOX_HILL_SLOPE 8.62, HEPG2TOX_R_SQUARED 0.549, PBLUC_HILL_SLOPE 14.3, PBLUC_R_SQUARED 0.552, read-out: LUCIFERASE INFECTION ASSAY - IC50): 3.1 µM
20 | CNc1snc(C)c1C(=O)OCc1cc(Cl)ccc1OC | 4.16 | IC50 (FFLUC_HILL_SLOPE 8.97, FFLUC_R_SQUARED 0.0554, PBLUC_HILL_SLOPE 11, PBLUC_R_SQUARED 0.441, read-out: LUCIFERASE INFECTION ASSAY - IC50): 3.41 µM
21 | Cc1ccc(-n2c(SCC(=O)NC34CC5CC(CC(C5)C3)C4)nnc2-c2ccccc2)cc1C | > 10 | IC50 (FFLUC_HILL_SLOPE 8.79, FFLUC_R_SQUARED 0.279, read-out: LUCIFERASE INFECTION ASSAY - IC50): > 10 µM
22 | CSC1=C(C#N)C(=O)NC(c2c(Cl)cccc2Cl)S1 (configuration not stated) | > 9.96 | IC50 (FFLUC_HILL_SLOPE 9.34, FFLUC_R_SQUARED 0.0497, read-out: LUCIFERASE INFECTION ASSAY - IC50): > 9.96 µM
23 | N#Cc1ccccc1NC(=O)CSc1nc2scc(-c3ccccc3Cl)c2c(=O)n1CCc1ccccc1 | 9.03 | IC50 (FFLUC_HILL_SLOPE 9.25, FFLUC_R_SQUARED 0.857, PBLUC_HILL_SLOPE 5.48, PBLUC_R_SQUARED 0.817, read-out: LUCIFERASE INFECTION ASSAY - IC50): 6.05 µM
24 | CCOC(=O)C1C(C)=NC2=C(C(=O)CC(c3ccc(F)cc3)C2)C1c1ccccc1C(F)(F)F (configuration not stated) | > 6.97 | IC50 (FFLUC_HILL_SLOPE 9.32, FFLUC_R_SQUARED 0.536, HEPG2TOX_HILL_SLOPE 7.97, HEPG2TOX_R_SQUARED 0.882, PBLUC_HILL_SLOPE 14, PBLUC_R_SQUARED 0.0949, read-out: LUCIFERASE INFECTION ASSAY - IC50): 6.64 µM
25 | COc1ccc(-c2cnc3cnc(-c4ccc(CNc5ccccc5)cc4)cn23)cc1 | > 8.12 | IC50 (FFLUC_HILL_SLOPE 9.54, FFLUC_R_SQUARED 0.167, PBLUC_HILL_SLOPE 2.96, PBLUC_R_SQUARED 0.482, read-out: LUCIFERASE INFECTION ASSAY - IC50): 4.66 µM
26 | CC(=O)c1cccc(-c2cnc3cnc(-c4ccc(CNc5ccccc5)cc4)cn23)c1 | > 7.89 | IC50 (FFLUC_HILL_SLOPE 9.2, FFLUC_R_SQUARED 0.0159, PBLUC_HILL_SLOPE 3.04, PBLUC_R_SQUARED 0.57, read-out: LUCIFERASE INFECTION ASSAY - IC50): 4.89 µM
27 | O=C(Nc1nc2ccccc2[nH]1)c1ccc(S(=O)(=O)N2CCc3ccccc3C2)cc1 | > 10 | IC50 (FFLUC_HILL_SLOPE 9.27, FFLUC_R_SQUARED 0.301, PBLUC_HILL_SLOPE 0.89, PBLUC_R_SQUARED 0.688, read-out: LUCIFERASE INFECTION ASSAY - IC50): 4.81 µM
28 | Cc1cc2nnc(-c3ccc(C(F)(F)F)cc3)n2[nH]1 | > 12.4 | IC50 (FFLUC_HILL_SLOPE 9.36, FFLUC_R_SQUARED 0.07, PBLUC_HILL_SLOPE 1.33, PBLUC_R_SQUARED 0.805, read-out: LUCIFERASE INFECTION ASSAY - IC50): 3.1 µM
29 | Cc1ccccc1-c1cn2c(-c3ccc(O)cc3)cnc2cn1 | 3.92 | IC50 (FFLUC_HILL_SLOPE 9.55, FFLUC_R_SQUARED 0.182, HEPG2TOX_HILL_SLOPE 2.1, HEPG2TOX_R_SQUARED 0.88, PBLUC_HILL_SLOPE 16, PBLUC_R_SQUARED 0.259, read-out: LUCIFERASE INFECTION ASSAY - IC50): 3.41 µM
30 | CC(C)=CC(=O)Nc1scc(-c2ccccc2)c1C(=O)OCc1nnc(-c2cccs2)o1 | > 10 | IC50 (FFLUC_HILL_SLOPE 8.85, FFLUC_R_SQUARED 0.514, PBLUC_HILL_SLOPE 2.24, PBLUC_R_SQUARED 0.566, read-out: LUCIFERASE INFECTION ASSAY - IC50): 5.03 µM
31 | O=S(=O)(c1ccccc1)N1[C@@H]2CC[C@@H](C2)[C@H]1c1nc2c(OCCC3CCCCC3)cccc2[nH]1 | > 10 | IC50 (FFLUC_HILL_SLOPE 8.97, FFLUC_R_SQUARED 0.445, PBLUC_HILL_SLOPE 2.11, PBLUC_R_SQUARED 0.35, read-out: LUCIFERASE INFECTION ASSAY - IC50): 6.12 µM

From ChEMBL document CHEMBL4483862, “Open-source discovery of chemical leads for next-generation chemoprotective antimalarials” (2018)
